For this test, the system named is M2R melanoma cells. As to the kind of experiment: Photodynamic activity in monolayer cell culture (phototoxicity to melanoma cells). As to conditions: mouse M2R melanoma cells, 4 hrs dark incubation, irradiation 600–1300 nm; for phototoxicity to M2R melanoma cells (result in words): viability by [3H]-thymidine incorporation, formed aggregates in the liposomes. In kind it is cell-based. How it is done: Liposome Preparation L-α-Dipalmitoylphosphatidylcholine (DPPC) liposomes as carrier system for pigments insoluble in water were prepared according to Toledano, 1998 and to Cuomo et al. 1990. […] (≅130 μg) of the photosensitizer and 5 mg DPPC were dissolved in 400 μl chloroform. Onto this were layered 250 μl H2O and 250 μl phosphate buffer (pH=7,2; 1,5 mM KH2PO4; 7,6 mM Na2HPO4; 0,15 M NaCl). The chloroform was removed within 5 min with a rapid stream of argon, while the mixture was sonicated and maintained at 45° C. Sonication was continued for another 20 min and the liposomes loaded with pigment were recovered in the supernatant after centrifugation (16 000×g, 10 min). The liposome concentration was determined photometrically at 750 nm (according to Grossweiner and Grossweiner, 1982). Photodynamic Activity in Monolayer Cell Culture M2R melanoma cells (mice) were cultivated as monolayers in 96-well microtiter-plates in DMEM (Dulbecco's modified Eagle's medium)/F12 1/1 (v/v) at 37° C. in a moist atmosphere containing 8% CO2. The medium (pH 7.4) was supplemented with HEPES buffer (25 mM), fetal-bovine-serum (FBS) (10%), glutamine (2 mM), penicillin (0.06 mg/ml) and streptomycin (0.1 mg/ml). Within 24 hrs, the cell density increased from 1×10^4 to 2×10^4 cell/100 μl. Increasing amounts of the liposome preparation containing the BChl-derivative were added to the cells. (Pd-BPheid-ser or Pd-BPheid-Nglc were added as ethanolic solution (10^−4 M) such that the maximum concentration of ethanol was <1%). The cells were first kept in the dark for 4 hrs, washed with 100 μl of the medium, treated with 100 μl of fresh medium, and then irradiated from below through the bottom of the plates with a russian BS LS3-PDT lamp, fitted with a filter (600–1300 nm). A light-dose of 10 mW x s x cm^−2 was provided during an irradiation time of […]. After an additional 24 h in the dark at 37° C., cell viability was determined by microscopic inspection (cell size and shape) and via [^3H]-thymidine incorporation into the DNA (Chen et al. 1988). […]
A general note: Uptake of a labelled nucleoside into DNA is a usual measure of proliferation.

Consider “Pd-bacteriopheophorbide a-17^3-N-glucosamide [Pd-BPheid-Nglc]”, for which the “phototoxicity to M2R melanoma cells (result in words)” value is given as “ineffective”. Same read-out and setting: the same measure for “13^3-tert.-butyl-benzyl-Pd-bacteriopheophorbide-a-17^3-tert-butyl-benzyl ester [tbb-Pd-BPheid-tbb]”: “ineffective”. In the case of “13^3-tert-butyl-benzyl-Pd-bacteriopheophorbide-a-17^3-methyl ester [tbb-Pd-Bpheid-me]”, the “LD90 (phototoxicity)” value (viability by [3H]-thymidine incorporation after 24 h, sensitizers in DPPC liposomes (Pd-BPheid-ser as ethanolic solution)) was 1.1 µM.

Source of the values: patent US7169753B2, “Chlorophyll and bacteriochlorophyll esters, their preparation and pharmaceutical compositions comprising them” (Yeda Research and Development Co. Ltd., priority 1999, dated 2007).
